From ChEMBL document CHEMBL1201862, “PubChem BioAssay data set” (2004)
Calls of active or inactive are those of the source.

What was measured:
[1] = Shn3 3'UTR reporter inhibitors, dose response, cell-based, Clone20 osteoblasts, firefly luciferase, cherry-picked (AID 624132); type: functional;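 further: firefly luciferase luminescence from reporter carrying the Shn3 3'UTR in osteoblasts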
[2] = HepG2 cell cytotoxicity, dose response, cytotoxicity control for Shn3 inhibitor project, CellTiter-Glo, cherry-picked (AID 624134); type: functional, cell-based
[3] = control 3'UTR Renilla luciferase suppression, dose response, counter-screen for Shn3 inhibitor project, cell-based, Clone20-Shn3RL, cherry-picked (AID 624133); type: functional
[4] = molecular target: 1-phosphatidylinositol 4,5-bisphosphate phosphodiesterase gamma-1 (Homo sapiens, UniProt P19174); experiment: Counterscreen for inhibitors of phospholipase C isozymes (PLC-B3): Fluorescence-based biochemical high throughput dose response assay to identify inhibitors of phospholipase C isozymes (PLC-gamma1).
[5] = molecular target: 1-phosphatidylinositol 4,5-bisphosphate phosphodiesterase beta-3 (Homo sapiens, UniProt Q01970); experiment: Fluorescence-based biochemical high throughput dose response assay to identify inhibitors of phospholipase C isozymes (PLC-B3).
fMet-Leu-Phe receptor = fMet-Leu-Phe receptor (Homo sapiens, UniProt P21462); experiment: FPR ligands, dose response (AID 519); type: functional
cells [6] = type: functional, cell-based
[7] = molecular target: T1, Nuclear receptor subfamily 0 group B member 1 (Homo sapiens, UniProt P51843); type: functional, cell-based;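 further: HEK293T cells transfected with SF-1 and DAX-1 plus StAR promoter luciferase reporter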
T1 sequence (P51843 whole entry): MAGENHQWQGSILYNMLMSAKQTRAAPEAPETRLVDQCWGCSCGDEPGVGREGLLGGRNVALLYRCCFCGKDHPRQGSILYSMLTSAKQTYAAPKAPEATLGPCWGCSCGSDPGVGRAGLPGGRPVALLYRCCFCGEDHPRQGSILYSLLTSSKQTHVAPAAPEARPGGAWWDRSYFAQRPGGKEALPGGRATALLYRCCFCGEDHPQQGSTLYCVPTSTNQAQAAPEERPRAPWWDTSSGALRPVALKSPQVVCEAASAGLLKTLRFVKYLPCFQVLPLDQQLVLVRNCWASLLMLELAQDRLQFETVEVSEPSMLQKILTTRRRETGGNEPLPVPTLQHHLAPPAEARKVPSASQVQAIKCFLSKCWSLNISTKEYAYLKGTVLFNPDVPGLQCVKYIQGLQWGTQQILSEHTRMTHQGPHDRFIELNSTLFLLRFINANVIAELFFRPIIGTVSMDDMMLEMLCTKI

Galanin receptor type 3 = molecular target: T2, Galanin receptor type 3 (Homo sapiens, UniProt O60755); experiment: Fluorescence-based cell-based primary high throughput dose response assay to identify antagonists of the Galanin Receptor 3 (GalR3).; type: functional
T2 sequence (O60755 whole entry): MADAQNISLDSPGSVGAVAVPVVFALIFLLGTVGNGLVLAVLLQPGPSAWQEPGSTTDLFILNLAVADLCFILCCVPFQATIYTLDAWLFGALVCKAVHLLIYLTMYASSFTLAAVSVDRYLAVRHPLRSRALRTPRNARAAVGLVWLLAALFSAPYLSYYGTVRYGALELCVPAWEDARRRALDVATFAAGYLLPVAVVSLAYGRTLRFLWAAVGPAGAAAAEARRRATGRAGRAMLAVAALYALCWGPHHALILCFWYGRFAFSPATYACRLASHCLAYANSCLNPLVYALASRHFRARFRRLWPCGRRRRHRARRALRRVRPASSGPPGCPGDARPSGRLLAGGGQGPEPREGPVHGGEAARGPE

cells [8] = type: functional, cell-based; details: HEK-CNG
Major prion protein = Major prion protein (Homo sapiens, UniProt P04156); type: functional, cell-based
cells [9] = experiment: cells
Paired box protein Pax-8 = Paired box protein Pax-8 (Homo sapiens, UniProt Q06710); experiment: inhibitors of PAX8-driven TPO luciferase reporter, dose response, RMG-I cells, cherry-pick (AID 687027); type: functional, cell-based;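 further: luciferase reporter driven by Pax8 target thyroperoxidase promoter measured by SteadyGlo luminescence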
[10] = IGROV1 ovarian cancer cell cytotoxicity, dose response, PAX8 inhibitor project, plate reader, dry powder samples (AID 743043); type: functional, cell-based; details: IGROV-1
[11] = cytotoxicity in OVCAR8 ovarian cancer cells, dose response, PAX8 project, cell-based, plate reader, dry powder samples (AID 743197); type: functional; details: OVCAR-8
[12] = molecular target: Long-chain-fatty-acid--AMP ligase FadD28 (Mycobacterium tuberculosis, UniProt P9WQ59); experiment: Fluorescence polarization aasay to screen for inhibitors that compete for the binding of FadD28 to a bisubstrate Measured in Biochemical System Using Plate Reader - 2147-01_Inhibitor_Dose_CherryPick_Activity.; type: functional, Mycobacterium tuberculosis H37Rv
[13] = HEK293T cytotoxicity, dose response, cytotoxicity control for miR-122 modulator project, cell-based, inhibitor set, cherry-pick, set 2 (AID 720697); type: functional
Protein Wnt-3a = Protein Wnt-3a (Mus musculus, UniProt P27467); experiment: SAR analysis of small molecule antagonists of Gli-SUFU in a Wnt3a luminescent reporter assay.; type: functional
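Wherever EC50 is given: target is galanin receptor GalR3 read with a cAMP biosensor in HEK293 cells.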

Compound: O=C(c1cccc(S(=O)(=O)N2CCN(c3ccc(F)cc3)CC2)c1)N1CCCC(C(F)(F)F)C1 (configuration not stated)
- AC50 [1]: 0.942 µM (active)
- AC50 [2]: 2.61 µM (active)
- AC50 [3]: 8.1 µM (active)
- IC50 [4]: > 122 µM (inactive)
- IC50 [5]: > 122 µM (inactive)

Compound: O=C(C1=C(O)C(=O)N(Cc2ccccc2)C1c1cccnc1)c1ccco1 (configuration not stated)
- Ki (fMet-Leu-Phe receptor): 30.5 µM (inactive)

Compound: C/C(=N\NC(=O)c1ccccc1O)c1cccs1
- IC50 (cells [6]): > 67.5 µM (inactive)
- IC50 [7]: > 67.5 µM (inactive)

Compound: Cc1cc(Br)cn2c(Cc3cccc(Cl)c3)c(-c3ccco3)nc12
- IC50 (Galanin receptor type 3): 8.41 µM (active)
- EC50 (cells [8]): > 29.9 µM (inactive)
- IC50 (Major prion protein): 10.5 µM (inactive)
- IC50 (cells [9]): 66.2 µM (inactive)

Compound: N#Cc1ccc(-c2nc3ccc(Br)cn3c2Cc2cccc(F)c2)cc1
- IC50 (Major prion protein): 2.98 µM (active)
- IC50 (cells [9]): > 138 µM (inactive)

Compound: C[C@@H]1CN([C@@H](C)CO)C(=O)c2cc(NC(=O)Cc3ccccc3)ccc2O[C@@H](C)CCCCO[C@@H]1CN(C)Cc1ccc(C(F)(F)F)cc1
- AC50 (Paired box protein Pax-8): 7.23 µM (active)
- AC50 [10]: 31.7 µM (active)
- AC50 [11]: > 70 µM (inactive)

Compound: O=c1c2c(O)cc(CSc3nnnn3-c3ccccc3)nc2[nH]n1-c1ccccc1
- AC50 [12]: > 100 µM (inactive)

Compound: CNC(=O)C[C@@H]1CC[C@@H]2[C@H](COc3ccc(NC(=O)Nc4ccc(Cl)cc4)cc3C(=O)N2C)O1
- AC50 [13]: 0.415 µM (active)

Compound: COc1ccccc1C(=O)N1C[C@@H]2[C@H](c3ccccc31)[C@H](CO)N2CC1CCCC1
- AC50 [13]: 9.28 µM (active)

Compound: CCC(C)Nc1cc(NC(=O)c2ccccc2)ncn1 (configuration not stated)
- IC50 (Protein Wnt-3a): > 21.8 µM (inactive)

Compound: CCN(CC)c1cc(NC(=O)c2ccccc2)nc(C)n1
- IC50 (Protein Wnt-3a): > 21.8 µM (inactive)
